Data as given in ChEMBL document CHEMBL5576081, “Exploring the structural activity relationship of the Osimertinib: A covalent inhibitor of double mutant EGFRL858R/T790M tyrosine kinase for the treatment of Non-Small Cell Lung Cancer (NSCLC)” (Bioorg Med Chem, 2024).

system: NCI-H1975; experiment: Antiproliferative activity against human NCI-H1975 cells; format: functional, cell-based; conditions: not given

IC50 [nM] | SMILES
8 | C=CC(=O)Nc1cc(Nc2nccc(-c3cn(C)c4ccccc34)n2)c(OC)cc1N(C)CCN(C)CC(=O)OC

molecular target: Epidermal growth factor receptor (Homo sapiens, UniProt P00533, L858R/T790M); experiment: Inhibition of EGFR L858R/T790M (unknown origin); conditions: not given
Sequence (P00533 25-1210 T790M/L858R limits assumed): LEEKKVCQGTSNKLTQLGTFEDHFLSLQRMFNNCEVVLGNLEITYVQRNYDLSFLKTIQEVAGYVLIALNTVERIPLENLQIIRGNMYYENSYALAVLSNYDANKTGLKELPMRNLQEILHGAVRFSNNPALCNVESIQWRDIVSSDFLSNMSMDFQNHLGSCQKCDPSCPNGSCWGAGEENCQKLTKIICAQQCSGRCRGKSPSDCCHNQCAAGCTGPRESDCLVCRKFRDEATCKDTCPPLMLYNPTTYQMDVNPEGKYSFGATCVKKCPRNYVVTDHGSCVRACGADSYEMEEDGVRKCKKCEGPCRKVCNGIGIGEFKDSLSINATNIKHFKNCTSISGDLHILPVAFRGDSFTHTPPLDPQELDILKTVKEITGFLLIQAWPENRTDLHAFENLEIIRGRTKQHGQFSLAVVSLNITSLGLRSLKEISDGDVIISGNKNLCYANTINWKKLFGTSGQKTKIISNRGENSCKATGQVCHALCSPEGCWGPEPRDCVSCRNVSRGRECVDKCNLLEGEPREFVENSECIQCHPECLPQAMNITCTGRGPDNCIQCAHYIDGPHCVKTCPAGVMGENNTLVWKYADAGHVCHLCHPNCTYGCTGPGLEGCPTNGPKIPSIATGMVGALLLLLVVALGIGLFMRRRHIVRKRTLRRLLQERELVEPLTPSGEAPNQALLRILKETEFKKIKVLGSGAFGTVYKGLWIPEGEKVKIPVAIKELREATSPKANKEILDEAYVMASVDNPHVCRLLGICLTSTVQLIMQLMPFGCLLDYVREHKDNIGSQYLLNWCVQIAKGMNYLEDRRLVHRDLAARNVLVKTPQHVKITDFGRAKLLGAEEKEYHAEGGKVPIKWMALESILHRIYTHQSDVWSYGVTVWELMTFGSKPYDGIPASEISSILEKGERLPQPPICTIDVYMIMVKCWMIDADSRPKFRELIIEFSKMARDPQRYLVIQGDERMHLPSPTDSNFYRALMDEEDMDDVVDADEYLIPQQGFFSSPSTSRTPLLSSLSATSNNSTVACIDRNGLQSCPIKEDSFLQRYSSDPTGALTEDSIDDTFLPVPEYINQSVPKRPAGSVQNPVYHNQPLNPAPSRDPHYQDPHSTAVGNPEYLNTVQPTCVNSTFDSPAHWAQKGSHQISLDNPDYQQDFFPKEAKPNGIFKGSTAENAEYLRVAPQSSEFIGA

IC50 [nM] | SMILES
8.58 | C#CCN(C)CCN(C)c1cc(OC)c(Nc2nccc(Nc3ccn(C)n3)n2)cc1NC(=O)C=C
6.1 | C=CC(=O)Nc1cc(Nc2nccc(Nc3ccn(C)n3)n2)c(OC)cc1N(C)CCN(C)C
42.3 | C=CC(=O)Nc1cc(Nc2nccc(Nc3ccn(C)n3)n2)c(OC)cc1N(C)CCN(C)CC(=O)OC
8 | C=CC(=O)Nc1cc(Nc2nccc(Nc3cnn(CC)c3)n2)c(OC)cc1N(C)CCN(C)C
137 | COc1cc(N(C)CCN(C)C)c(NC(=O)c2ccnc(Cl)c2)cc1Nc1nccc(-c2cn(CCCO)c3ccccc23)n1
> 500 | COc1cc(N(C)CCN(C)C)c(NC(=O)c2cnccn2)cc1Nc1nccc(-c2cn(C)c3ccccc23)n1
> 500 | COc1cc(N(C)CCN(C)C)c(NC(=O)c2ccncc2OC)cc1Nc1nccc(-c2cn(C)c3ccccc23)n1
> 500 | COc1cc(N(C)CCN(C)C)c(NC(=O)c2ncccn2)cc1Nc1nccc(-c2cn(C)c3ccccc23)n1
242 | COc1cc(N(C)CCN(C)C)c(NC(=O)c2ccncn2)cc1Nc1nccc(-c2cn(C)c3ccccc23)n1
161 | COc1cc(N(C)CCN(C)C)c(NC(=O)c2ccncn2)cc1Nc1nccc(-c2cn(CCCO)c3ccccc23)n1
420 | COc1cc(N(C)CCN(C)C)c(NC(=O)c2ccnc(Cl)c2)cc1Nc1nccc(-c2cn(C)c3ccccc23)n1
5.7 | C=CC(=O)Nc1cc(Nc2nccc(-c3cn(C)c4ccccc34)n2)c(OC)cc1N(C)CCN(C)CC(=O)OC

system: not listed separately; experiment: Antiproliferative activity against mouse KC-0116 cells; format: toxicity, cell-based; conditions: not given

SMILES | IC50 [nM]
COc1cc(N2CCC(N(C)C)CC2)c(NC(=O)CO)cc1Nc1nccc(-c2cn(C)c3ccccc23)n1 | 460
CN(C)C1CCN(c2ccc(Nc3nccc(-c4cn(C)c5ccccc45)n3)cc2NS(C)(=O)=O)CC1 | 160
COc1cc(N(C)CCN(C)C)c(NC(=O)CN)cc1Nc1nccc(-c2cn(C)c3ccccc23)n1 | 1320
Cn1cc(-c2ccnc(Nc3cccc(NC(=O)CCN)c3)n2)c2ccccc21 | 4990
Cn1cc(-c2ccnc(Nc3ccc(N4CCC(N5CCOCC5)CC4)cc3)n2)c2ccccc21 | 1710
COCC(=O)Nc1cc(Nc2nccc(-c3cn(C)c4ccccc34)n2)c(OC)cc1N1CCC(N(C)C)CC1 | 460
CN(C)C1CCN(c2ccc(Nc3nccc(-c4cn(C)c5ccccc45)n3)cc2NS(=O)(=O)C2CC2)CC1 | 240
CN(C)C1CCN(c2ccc(Nc3nccc(-c4cn(C)c5ccccc45)n3)cc2)CC1 | 400
CN1CCN(C2CCN(c3ccc(Nc4nccc(-c5cn(C)c6ccccc56)n4)cc3NS(=O)(=O)C3CC3)CC2)CC1 | 170
COc1cc(N(C)CCN(C)C)c(NC(=O)CNC(=O)OC(C)(C)C)cc1Nc1nccc(-c2cn(C)c3ccccc23)n1 | 1290
Cn1cc(-c2ccnc(Nc3ccc(N4CCOCC4)cc3)n2)c2ccccc21 | 7000
Cn1cc(-c2ccnc(Nc3ccc(N4CCCCC4)cc3)n2)c2ccccc21 | 10000
COc1cc(N2CCC(N3CCN(C)CC3)CC2)ccc1Nc1ncc(Cl)c(Nc2ccccc2P(C)(C)=O)n1 [BRIGATINIB] | 350

system: not listed separately; experiment: Antiproliferative activity against mouse Ba/F3 EGFR-T790M/L858R cells incubated for 3 days by Cell Titer-Glo assay; format: functional, cell-based; conditions: 72 h

SMILES | IC50 [nM]
COc1cc(N2CCC(N(C)C)CC2)c(NC(=O)CO)cc1Nc1nccc(-c2cn(C)c3ccccc23)n1 | 480
CN(C)C1CCN(c2ccc(Nc3nccc(-c4cn(C)c5ccccc45)n3)cc2NS(C)(=O)=O)CC1 | 170
COc1cc(N(C)CCN(C)C)c(NC(=O)CN)cc1Nc1nccc(-c2cn(C)c3ccccc23)n1 | 2720
Cn1cc(-c2ccnc(Nc3cccc(NC(=O)CCN)c3)n2)c2ccccc21 | 4770
Cn1cc(-c2ccnc(Nc3ccc(N4CCC(N5CCOCC5)CC4)cc3)n2)c2ccccc21 | 5740
COCC(=O)Nc1cc(Nc2nccc(-c3cn(C)c4ccccc34)n2)c(OC)cc1N1CCC(N(C)C)CC1 | 450
CN(C)C1CCN(c2ccc(Nc3nccc(-c4cn(C)c5ccccc45)n3)cc2NS(=O)(=O)C2CC2)CC1 | 250
CN(C)C1CCN(c2ccc(Nc3nccc(-c4cn(C)c5ccccc45)n3)cc2)CC1 | 450
CN1CCN(C2CCN(c3ccc(Nc4nccc(-c5cn(C)c6ccccc56)n4)cc3NS(=O)(=O)C3CC3)CC2)CC1 | 200
COc1cc(N(C)CCN(C)C)c(NC(=O)CNC(=O)OC(C)(C)C)cc1Nc1nccc(-c2cn(C)c3ccccc23)n1 | 1280
Cn1cc(-c2ccnc(Nc3ccc(N4CCOCC4)cc3)n2)c2ccccc21 | > 10000
Cn1cc(-c2ccnc(Nc3ccc(N4CCCCC4)cc3)n2)c2ccccc21 | > 10000
COc1cc(N2CCC(N3CCN(C)CC3)CC2)ccc1Nc1ncc(Cl)c(Nc2ccccc2P(C)(C)=O)n1 [BRIGATINIB] | 450
